Values after ≈ are worked out from the molar mass of the structure shown. Where two headings read alike, the source gives them in different places.
Assays:
Experiment in all cases: Microdilution assay, MIC determination (CLSI M07-A9)
Type in all cases: cell-based
M. luteus DSM1790 = conditions: Micrococcus luteus
Procedure: (§1) E. coli DSM 1116; E. coli BW25113; S. typhimurium TA100; Bacillus subtilis DSM10; M. phlei DSM750 and Micrococcus luteus DSM1790
(§2) The tests were performed using the micro dilution method.
(§3) The determination of MIC values was performed according to the ninth edition of the Approved Standard M07-A9 (CLSI. Methods for Dilution Antimicrobial Susceptibility Tests for Bacteria That Grow Aerobically; Approved Standard-Ninth Edition. CLSI document M07-A9. Wayne, Pa.: Clinical and Laboratory Standards Institute; 2012.)
(§4) The test was carried out for the six different bacterial strains 20 μL of cryo stock of each strain were inoculated in 20 mL of LB media (Lysogeny broth: 10 g/L peptone, 5 g/L yeast extract, 5 g/L NaCl) followed by incubation over night at 37° C., 200 rpm. The test inoculum was adjusted by the 0.5 McFarland Standard (OD625 from 0.08 to 0.1). Within 15 min of preparation, the adjusted inoculum suspension was diluted in MHBII media (BBL™ Mueller-Hinton Broth II, Becton, Dickinson and Company, New Jersey/USA) so that each well contained approximately 5×10^5 CFU/mL in a final volume of 100 μL. 95 μL of the inoculum were applied per well and 5 μL of the (diluted) antibiotic substance were added.
(§5) Previously the dry antibiotic compounds were dissolved in DMSO (100%) with a concentration of 2560 μg/mL and the resulting stock solutions were further diluted in DMSO (100%). 5 μL of each antibiotic dilution were applied to the microdilution tray to reach final concentrations of 64 μg/mL to 0.008 μg/mL. One row of each well plate was left as a growth control without antibiotic substances and another row of the microdilution tray was used as sterility control (only MHB II-media). The antimicrobial effect of the solvent (DMSO) was tested by adding 5 μL DMSO to several wells without antibiotics.
(§6) Purity check and cell titer control were performed according to International Standard M07-A9 on Mueller-Hinton II Agar (Mueller Hinton II Broth, 15 g/L agar-agar).
(§7) Both microdilution trays and agar plates were incubated at 37° C. for 20 h and subsequently analyzed visually.

E. coli BW25113 = conditions: Escherichia coli
Procedure: as §1, §2, §3, §4, §5, §6, §7

M. phlei DSM750 = conditions: Mycolicibacterium phlei
Procedure: as §1, §2, §3, §4, §5, §6, §7

B. subtilis DSM10 = conditions: Bacillus subtilis
Procedure: as §1, §2, §3, §4, §5, §6, §7

E. coli DSM1116 = conditions: Escherichia coli
Procedure: as §1, §2, §3, §4, §5, §6, §7

S. typhimurium TA100 = conditions: Salmonella enterica, 20 h
Procedure: as §1, §2, §3, §4, §5, §6, §7

[1] = M. luteus DSM1790, 37° C., 20 h, MHBII media, read-out: MIC
[2] = E. coli BW25113, 37° C., 20 h, MHBII media, read-out: MIC
[3] = M. phlei DSM750, 37° C., 20 h, MHBII media, read-out: MIC
[4] = B. subtilis DSM10, 37° C., 20 h, MHBII media, read-out: MIC
[5] = E. coli DSM1116, 37° C., 20 h, MHBII media, read-out: MIC
[6] = S. typhimurium TA100, 37° C., MHBII media, read-out: MIC

Row | Compound | MIC (M. luteus DSM1790; [1]) [µg/mL] | MIC (E. coli BW25113; [2]) [µg/mL] | MIC (M. phlei DSM750; [3]) [µg/mL] | MIC (B. subtilis DSM10; [4]) [µg/mL] | MIC (E. coli DSM1116; [5]) [µg/mL] | MIC (S. typhimurium TA100; [6]) [µg/mL] | MIC (E. coli BW25113; BW25113, 20 h) [µg/mL] | MIC (E. coli DSM1116; DSM1116, 20 h) [µg/mL] | MIC (S. typhimurium TA100; TYPHIMURIUM) [µg/mL] | MIC (M. luteus DSM1790; DSM1790, 20 h) [µg/mL] | MIC (M. phlei DSM750; DSM750, 20 h) [µg/mL] | MIC (B. subtilis DSM10; DSM10, 20 h) [µg/mL]
1 | COc1c(NC(=O)c2ccc(NC(=O)c3ccc(NC(=O)C(Cc4cnn[nH]4)NC(=O)c4ccc(NC(=O)/C(C)=C/c5ccc(O)cc5)cn4)cc3O)c(OC)c2O)ccc(C(=O)O)c1O (stereo not drawn) [Compound 4] | 2000 (≈ 2220 µM) | 31 (≈ 34.4 µM) | 2000 (≈ 2220 µM) | 1000 (≈ 1110 µM) | 31 (≈ 34.4 µM) | 16 (≈ 17.7 µM) |  |  |  |  |  | 
2 | CC(C)Oc1c(NC(=O)c2ccc(NC(=O)[C@H](Cc3c[nH]nn3)NC(=O)c3ccc(NC(=O)c4ccc(C#N)cc4)cn3)cn2)ccc(C(=O)Nc2ccc(C(=O)O)cc2)c1O [Compound 18] | ≤ 16 | ≤ 16 | 31 (≈ 37 µM) | ≤ 16 | 31 (≈ 37 µM) | ≤ 16 |  |  |  |  |  | 
3 | COc1c(NC(=O)c2ccc(NC(=O)C(Cc3cnn[nH]3)NC(=O)c3ccc(NC(=O)/C(C)=C/c4ccc(O)cc4)cn3)cc2)ccc(C(=O)Nc2ccc(C(=O)O)c(O)c2OCCO)c1O (stereo not drawn) [Compound 8] | 2000 (≈ 2180 µM) | 125 (≈ 136 µM) | 2000 (≈ 2180 µM) | 2000 (≈ 2180 µM) | 63 (≈ 68.8 µM) | 31 (≈ 33.8 µM) |  |  |  |  |  | 
4 | COc1nc(C(=O)Nc2ccc(C(=O)O)nc2OC)ccc1NC(=O)c1ccc(NC(=O)[C@H](Cc2c[nH]nn2)NC(=O)c2ccc(NC(=O)/C(C)=C/c3ccc(O)cc3)cc2)cc1 [Compound 19] | 2000 (≈ 2340 µM) | 1000 (≈ 1170 µM) | 8000 (≈ 9360 µM) | 4000 (≈ 4680 µM) | 500 (≈ 585 µM) | 500 (≈ 585 µM) |  |  |  |  |  | 
5 | COc1nc(C(=O)O)ccc1NC(=O)c1ccc(NC(=O)c2ccc(NC(=O)C(Cc3cnn[nH]3)NC(=O)c3ccc(NC(=O)/C(C)=C/c4ccc(O)cc4)cc3)cc2)c(OC)c1O (stereo not drawn) [Compound 7] | > 8000 | 500 (≈ 575 µM) | 8000 (≈ 9200 µM) | 2000 (≈ 2300 µM) | 250 (≈ 287 µM) | 250 (≈ 287 µM) |  |  |  |  |  | 
6 | C/C(=C\c1ccc(O)cc1)C(=O)Nc1ccc(C(=O)N[C@@H](Cc2c[nH]nn2)C(=O)Nc2ccc(C(=O)Nc3ccc(C(=O)Nc4ccc(C(=O)O)cc4)c(O)c3OC(C)C)nc2)cc1 [Compound 15] | 63 (≈ 72.6 µM) | 31 (≈ 35.7 µM) | 250 (≈ 288 µM) | ≤ 16 | 31 (≈ 35.7 µM) | ≤ 16 |  |  |  |  |  | 
7 | COc1c(NC(=O)c2ccc(NC(=O)c3ccc(NC(=O)C(Cc4cnn[nH]4)NC(=O)c4ccc(NC(=O)/C(C)=C/c5ccc(O)cc5)nc4)cc3)c(OC)c2O)ccc(C(=O)O)c1O (stereo not drawn) [Compound 2] | 2000 (≈ 2260 µM) | 16 (≈ 18.1 µM) | 2000 (≈ 2260 µM) | 500 (≈ 564 µM) | 31 (≈ 35 µM) | 16 (≈ 18.1 µM) |  |  |  |  |  | 
8 | COc1c(NC(=O)c2ccc(NC(=O)c3ccc(NC(=O)C(Cc4cnn[nH]4)NC(=O)c4ccc(NC(=O)c5ccc(C#N)cc5)cc4)cn3)c(OC)c2O)ccc(C(=O)O)c1O (stereo not drawn) [Compound 12] | 125 (≈ 146 µM) | 31 (≈ 36.3 µM) | 8000 (≈ 9360 µM) | 250 (≈ 292 µM) | 31 (≈ 36.3 µM) | ≤ 16 |  |  |  |  |  | 
9 | C/C(=C\c1ccc(O)cc1)C(=O)Nc1ccc(C(=O)N[C@@H](Cc2c[nH]nn2)C(=O)Nc2ccc(C(=O)Nc3ccc(C(=O)Nc4ccc(C(=O)O)cc4)c(O)c3OC(C)C)nc2)nc1 [Compound 16] | ≤ 16 | ≤ 16 | 31 (≈ 35.7 µM) | ≤ 16 | 31 (≈ 35.7 µM) | ≤ 16 |  |  |  |  |  | 
10 | COc1c(NC(=O)c2ccc(NC(=O)[C@H](Cc3c[nH]nn3)NC(=O)c3ccc(NC(=O)/C(C)=C/c4ccc(O)cc4)cc3)cc2)ccc(C(=O)Nc2ccc(C(=O)O)cn2)c1O [Compound 21] | 4000 (≈ 4760 µM) |  | 4000 (≈ 4760 µM) | 4000 (≈ 4760 µM) |  | 16 (≈ 19.1 µM) | 125 (≈ 149 µM) | 125 (≈ 149 µM) |  |  |  | 
11 | COc1nc(C(=O)Nc2ccc(C(=O)O)c(O)c2OC)ccc1NC(=O)c1ccc(NC(=O)C(Cc2cnn[nH]2)NC(=O)c2ccc(NC(=O)/C(C)=C/c3ccc(O)cc3)cc2)cc1 (stereo not drawn) [Compound 6] | 125 (≈ 144 µM) | 16 (≈ 18.4 µM) | 1000 (≈ 1150 µM) | 250 (≈ 287 µM) | 16 (≈ 18.4 µM) | 31 (≈ 35.6 µM) |  |  |  |  |  | 
12 | COc1c(NC(=O)c2ccc(NC(=O)c3ccc(NC(=O)C(Cc4cnn[nH]4)NC(=O)c4ccc(NC(=O)c5ccc(F)cc5)cn4)cc3O)c(OC)c2O)ccc(C(=O)O)c1O (stereo not drawn) [Compound 9] | > 8000 | 125 (≈ 145 µM) | 1000 (≈ 1160 µM) | 1000 (≈ 1160 µM) | 63 (≈ 72.9 µM) | 310 (≈ 359 µM) |  |  |  |  |  | 
13 | COc1c(NC(=O)c2ccc(NC(=O)[C@H](Cc3c[nH]nn3)NC(=O)c3ccc(NC(=O)/C(C)=C/c4ccc(O)cc4)cc3)cc2)ccc(C(=O)Nc2ccc(C(=O)O)nc2)c1O [Compound 20] | ≥ 8000 | > 8000 | ≥ 8000 | ≥ 8000 | > 8000 |  |  |  | 125 (≈ 149 µM) |  |  | 
14 | COc1c(NC(=O)c2ccc(NC(=O)c3ccc(NC(=O)C(Cc4cnn[nH]4)NC(=O)c4ccc(NC(=O)/C(C)=C/c5ccc(O)cc5)cn4)cc3)c(OC)c2O)ccc(C(=O)O)c1O (stereo not drawn) [Compound 1] |  |  |  |  |  |  | 16 (≈ 18.1 µM) | 16 (≈ 18.1 µM) | 16 (≈ 18.1 µM) | 500 (≈ 564 µM) | 2000 (≈ 2260 µM) | 250 (≈ 282 µM)
15 | COc1c(NC(=O)c2ccc(NC(=O)c3ccc(NC(=O)C(Cc4cnn[nH]4)NC(=O)c4ccc(NC(=O)/C(C)=C/c5ccc(O)cc5)cn4)cn3)c(OC)c2O)ccc(C(=O)O)c1O (stereo not drawn) [Compound 14] | 125 (≈ 141 µM) | 63 (≈ 71 µM) | 4000 (≈ 4510 µM) | 125 (≈ 141 µM) | ≤ 16 | ≤ 16 |  |  |  |  |  | 
16 | COc1c(NC(=O)c2ccc(NC(=O)c3ccc(NC(=O)[C@H](CC#N)NC(=O)c4ccc(NC(=O)/C(C)=C/c5ccc(O)cc5)cc4)cc3)c(OC)c2O)ccc(C(=O)O)c1O [Albicidin] |  |  |  |  |  |  | 63 (≈ 74.7 µM) | 63 (≈ 74.7 µM) | 63 (≈ 74.7 µM) | 1000 (≈ 1190 µM) | 2000 (≈ 2370 µM) | 250 (≈ 297 µM)
17 | COc1c(NC(=O)c2ccc(NC(=O)c3ccc(NC(=O)C(Cc4cnn[nH]4)NC(=O)c4ccc(NC(=O)/C(C)=C/c5ccc(O)cc5)cc4)nc3)c(OC)c2O)ccc(C(=O)O)c1O (stereo not drawn) [Compound 11] | 4000 (≈ 4520 µM) | 500 (≈ 564 µM) | 8000 (≈ 9030 µM) | 500 (≈ 564 µM) | 1000 (≈ 1130 µM) | 4000 (≈ 4520 µM) |  |  |  |  |  | 
18 | CC(C)Oc1c(NC(=O)c2ccc(NC(=O)[C@H](Cc3c[nH]nn3)NC(=O)c3ccc(NC(=O)c4ccc(C#N)cc4)cc3)cn2)ccc(C(=O)Nc2ccc(C(=O)O)cc2)c1O [Compound 17] | 125 (≈ 149 µM) | 31 (≈ 37 µM) | 500 (≈ 597 µM) | 31 (≈ 37 µM) | 31 (≈ 37 µM) | ≤ 16 |  |  |  |  |  | 
19 | COc1c(NC(=O)c2ccc(NC(=O)c3ccc(NC(=O)C(Cc4cnn[nH]4)NC(=O)c4ccc(NC(=O)/C(C)=C/c5ccc(O)cc5)cc4)cn3)c(OC)c2O)ccc(C(=O)O)c1O (stereo not drawn) [Compound 10] | 31 (≈ 35 µM) | ≤ 16 | 250 (≈ 282 µM) | 63 (≈ 71.1 µM) | ≤ 16 | ≤ 16 |  |  |  |  |  | 
20 | COc1c(NC(=O)c2ccc(NC(=O)c3ccc(NC(=O)C(Cc4cnn[nH]4)NC(=O)c4ccc(NC(=O)/C(C)=C/c5ccc(O)cc5)nn4)cc3)c(OC)c2O)ccc(C(=O)O)c1O (stereo not drawn) [Compound 3] | 4000 (≈ 4510 µM) | 31 (≈ 35 µM) | 2000 (≈ 2260 µM) | 1000 (≈ 1130 µM) | 31 (≈ 35 µM) | 31 (≈ 35 µM) |  |  |  |  |  | 
21 | COc1c(NC(=O)c2ccc(NC(=O)c3ccc(NC(=O)C(Cc4cnn[nH]4)NC(=O)c4ccc(NC(=O)c5ccc(C#N)cc5)cn4)cn3)c(OC)c2O)ccc(C(=O)O)c1O (stereo not drawn) [Compound 13] | 63 (≈ 73.6 µM) | 31 (≈ 36.2 µM) | 1000 (≈ 1170 µM) | 125 (≈ 146 µM) | 31 (≈ 36.2 µM) | 4000 (≈ 4670 µM) |  |  |  |  |  | 
22 | COc1c(NC(=O)c2ccc(NC(=O)c3ccc(NC(=O)C(Cc4cnn[nH]4)NC(=O)c4ccc(NC(=O)/C(C)=C/c5ccc(F)cc5)cn4)cc3O)c(OC)c2O)ccc(C(=O)O)c1O (stereo not drawn) [Compound 5] | 2000 (≈ 2210 µM) | 63 (≈ 69.7 µM) | 2000 (≈ 2210 µM) | 250 (≈ 277 µM) | 16 (≈ 17.7 µM) | 16 (≈ 17.7 µM) |  |  |  |  |  | 
